Columns and labels:
[1] = test system: LC-6 (human lung cancer); test: Tumor growth inhibitory effect (LC-6 subcutaneous solid tumor in nude mice); assay type: in vivo, human cells in SPF BALB/c-nu/nu male mice; settings: tumor weight at 3 weeks vs non-treated
Procedure: (§1) Each of 4-1ST (human stomach cancer) and LC-6 (human lung cancer) cell lines grown subcutaneously as solid tumors in mice, were cut into rectangular pieces measuring 2 mm×2 mm×2 mm and were then transplanted subcutaneously into the right backs of SPF BALB/c-nu/nu male mice (7 week old) by use of a needle for transplantation. Using the equation shown below, the estimated volume of tumor was determined. When the estimated volume of tumor became 100-250 mm^3, the mice were allocated. To the grouped mice were administered various doses of Am 555S, 5-fluorouracil (5-FU) and Cisplatin (CDDP). […] More specifically, Am 555S was orally administered for three terms, each term consisting of five consecutive administration days and two non-administration days, 5-FU was administered intravenously through the tail vein for consecutive five days, and CDDP was administered once intravenously through the tail vein. After three weeks from the administration commencement, the mice were killed and the tumor growth inhibition rates were determined from the rate of tumor weights to that of the non-treated group, so as to determine the effect of growth inhibition of the tumor.

[2] = test system: 4-1ST (human stomach cancer); test: Tumor growth inhibitory effect (4-1ST subcutaneous solid tumor in nude mice); assay type: in vivo, human cells in SPF BALB/c-nu/nu male mice; settings: tumor weight at 3 weeks vs non-treated
Procedure: as §1

[3] = Toxicity test, oral, 3 weeks; assay type: in vivo, SPF ICR male mice; settings: consecutive 3 weeks, 6 mice
Procedure: SPF ICR male mice (5 week old) were used as divided into groups each consisting of 6 mice. To the group to be administered with the compound Re 80, the group to be administered with the compound Am 55S and the group to be administered with the compound Am 555S were orally administered 2 mg/kg of the compound Re 80 per day, 640 mg/kg of the compound Am 55S per day and 16 mg/kg of the compound Am 555S per day for consecutive 3 weeks, respectively.

[4] = test system: experimental liver metastasis models (KM12L4, TMK-1, A549); test: Effect on the experimental liver metastasis, overall (KM12L4, TMK-1 and A549 models); assay type: in vivo, human cells in SPF BALB/c-nu/nu male mice; settings: for maximum ILS as compared with all-trans-retinoic acid (ATRA) / advantage over all-trans-retinoic acid (ATRA) in ILS: comparison with ATRA, in words; for inhibition of cancer metastasis: conclusion in words; for survival time of the mouse: conclusion in words from Table 1; for maximum value of the ILS as compared with the control group: maximum over cell lines and doses of Table 1
Procedure: (§2) The effect of cancer metastasis inhibition was measured using the compounds Re 80, Am 55S and Am 555S.
(§3) KM12L4 (human colon cancer), TMK-1 (human stomach cancer) and A549 (human lung cancer) were each transplanted into the spleen of SPF BALB/c-nu/nu male mice (7 week old) in an amount of 1×10^6 cells/mouse. This test was conducted using experimental liver metastasis models.
(§4) The test procedure followed the modified Morikawa et al method (Cancer Research, 48, 1943-1948, (1988)). That is, the in vitro cultured cells were collected using 0.25% trypsin--0.02% EDTA or 0.02% EDTA and were then washed with physiological phosphate buffer saline. After the number of the cells was counted, the cells were diluted to 10^6 cells/50 μl. Next, each mouse was incised at their left abdomen after being anesthetized with 30 mg/kg of Nembutal and then the spleen was exposed. With a 28 gauge needle attached syringe, 50 μl of the above-prepared suspension containing 1×10^6 cells/50 μl was injected into the spleen. After two minutes, two portions of blood vessels of the spleen were ligated using a Liga clip and the spleen was removed. The incision site was then closed using a kyapher suture. Each of the compounds Re 80, Am 55S and Am 555S, which is an active ingredient of the cancer metastasis inhibitor of the invention, was suspended in 5% ethanol/olive oil or in 0.5% carboxymethyl cellulose/0.5% Tween 80 (Registered Trademark, produced by Nacalai tesque Co.) and was orally administered to each mouse from next day of the transplantation. In each case, the administration was conducted for three terms, each term consisting of five consecutive administration days and two non-administration days. Evaluation was conducted using the increased life span (ILS) in comparison to the control solvent group as an evaluation index. The ILS of all-trans-retinoic acid (ATRA), known to have cancer metastasis inhibiting properties, was also measured with the same test procedure.

[5] = test system: KM12L4 (human colon cancer); test: Experimental liver metastasis (KM12L4 human colon cancer transplanted into the spleen of nude mice), increased life span; assay type: in vivo, human cells in SPF BALB/c-nu/nu male mice
Procedure: as §2, §3, §4

[6] = test system: A549 (human lung cancer); test: Experimental liver metastasis (A549 human lung cancer transplanted into the spleen of nude mice), increased life span; assay type: in vivo, human cells in SPF BALB/c-nu/nu male mice
Procedure: as §2, §3, §4

[7] = test system: TMK-1 (human stomach cancer); test: Experimental liver metastasis (TMK-1 human stomach cancer transplanted into the spleen of nude mice), increased life span; assay type: in vivo, human cells in SPF BALB/c-nu/nu male mice
Procedure: as §2, §3, §4

[8] = test system: genes considered to be related to cancer metastasis and infiltration; settings: as reported in the background art; concentration dependent manner; cited from earlier work
[9] = test system: 4-1ST (human stomach cancer) and LC-6 (human lung cancer); test: Tumor growth inhibitory effect, overall (4-1ST and LC-6); assay type: in vivo, human cells in SPF BALB/c-nu/nu male mice
Procedure: as §1

[10] = 2 mg/kg oral, 3 terms of 5 days on/2 off
[11] = 8 mg/kg oral, 3 terms of 5 days on/2 off

With `[NH2][Pt]([NH2])([Cl])[Cl]` [CDDP, Cisplatin, reference compound] the “Tumor Growth Inhibition Rate” value ([1]; 7 mg/kg i.v. (tail vein), once) was 52.3.

For `O=c1[nH]cc(F)c(=O)[nH]1` [5-FU, 5-fluorouracil, reference compound], the “Tumor Growth Inhibition Rate” value ([2]; 19 mg/kg i.v. (tail vein), consecutive five days) was 50.9.

With `C[Si](C)(C)c1cc(NC(=O)c2ccc(C(=O)O)cc2)cc([Si](C)(C)C)c1` [Am 55S, 4-[3,5-bis(trimethylsilyl)phenylcarbamoyl] benzoic acid] the death ([3]; 640 mg/kg per day oral) was “No death occurred”, the notable side effect ([3]; 640 mg/kg per day oral) was “no notable side effect occurred” and the “maximum ILS as compared with all-trans-retinoic acid (ATRA)” value [4] was “higher”. For the same compound, the “inhibition of cancer metastasis” value [4] was “effective to inhibit cancer metastasis”, the “survival time of the mouse” value [4] was “remarkably prolonged” and the “maximum value of the ILS as compared with the control group” value [4] was 42%. The “Increased life span (ILS %)” value ([5]; po, 100 mg/kg, 120 h) was 14%, the “Increased life span (ILS %)” value ([5]; po, 300 mg/kg, 120 h) was 42% and the “Increased life span (ILS %)” value ([6]; po, 100 mg/kg, 120 h) was 37%. For the same compound, the “Increased life span (ILS %)” value ([6]; po, 300 mg/kg, 120 h) was 6%, the “Increased life span (ILS %)” value ([7]; po, 100 mg/kg, 120 h) was 39% and the “Increased life span (ILS %)” value ([7]; po, 300 mg/kg, 120 h) was 30%.

In the case of `CC1(C)CCC(C)(C)c2cc(C(=O)C=C(O)c3ccc(C(=O)O)cc3)c(O)cc21` [Re 80, 4-[1-hydroxy-3-oxo-3-(5,6,7,8-tetrahydro-5,5,8,8-tetramethyl-3-hydroxy-2-naphthalenyl)-1-propenyl] benzoic acid], the death ([3]; 2 mg/kg per day oral) is reported as “No death occurred”, the notable side effect ([3]; 2 mg/kg per day oral) is reported as “no notable side effect occurred” and the “advantage over all-trans-retinoic acid (ATRA) in ILS” value [4] is reported as “marked advantages”. The “maximum ILS as compared with all-trans-retinoic acid (ATRA)” value [4] was “higher”, the “inhibition of cancer metastasis” value [4] was “effective to inhibit cancer metastasis” and the “survival time of the mouse” value [4] was “remarkably prolonged”. The “maximum value of the ILS as compared with the control group” value [4] was 50%, the “Increased life span (ILS %)” value ([5]; po, 0.5 mg/kg, 120 h) was 23% and the “Increased life span (ILS %)” value ([5]; po, 2 mg/kg, 120 h) was 34%. For the same compound, the “Increased life span (ILS %)” value ([6]; po, 0.5 mg/kg, 120 h) was 19%, the “Increased life span (ILS %)” value ([6]; po, 2 mg/kg, 120 h) was 22% and the “Increased life span (ILS %)” value ([7]; po, 0.5 mg/kg, 120 h) was 36%. For the same compound, the “Increased life span (ILS %)” value ([7]; po, 2 mg/kg, 120 h) was 50%.

In the case of `CC1=C(/C=C/C(C)=C/C=C/C(C)=C/C(=O)O)C(C)(C)CCC1` [ATRA, all-trans-retinoic acid, reference compound], the “expression of genes related to cancer metastasis and infiltration” value [8] is listed as “can prevent the expression of these genes to interdict metastasis and infiltration of cancer cells in concentration dependent manner” and the “Increased life span (ILS %)” value ([7]; TMK-1, 8 mg/kg, same test procedure, vs control solvent group) is listed as 22%.

With `C[Si](C)(C)c1cc(C(=O)Nc2ccc(C(=O)O)cc2)cc([Si](C)(C)C)c1` [Am 555S, 4-[3,5-bis(trimethylsilyl)phenylcarboxamide] benzoic acid] the death ([3]; 16 mg/kg per day oral) was “No death occurred”, the notable side effect ([3]; 16 mg/kg per day oral) was “no notable side effect occurred” and the “tumor growth inhibition rates as compared with 5-FU and CDDP” value ([9]; comparison in words from Table 2) was “extremely low tumor growth inhibition rates”. For the same compound, the “tumor growth inhibition activity” value ([9]; conclusion in words from Table 2) was “no tumor growth inhibition activity”, the “Tumor Growth Inhibition Rate” value [2, 10] was 2.7 and the “Tumor Growth Inhibition Rate” value ([2]; 4 mg/kg oral, 3 terms of 5 days on/2 off) was -4.9. For the same compound, the “Tumor Growth Inhibition Rate” value [2, 11] was 8.7, the “advantage over all-trans-retinoic acid (ATRA) in ILS” value [4] was “marked advantages” and the “maximum ILS as compared with all-trans-retinoic acid (ATRA)” value [4] was “higher”. For the same compound, the “inhibition of cancer metastasis” value [4] was “effective to inhibit cancer metastasis”, the “survival time of the mouse” value [4] was “remarkably prolonged” and the “maximum value of the ILS as compared with the control group” value [4] was 71%. For the same compound, the “Tumor Growth Inhibition Rate” value [1, 10] was 2.7, the “Tumor Growth Inhibition Rate” value [1, 11] was 13.7 and the “Increased life span (ILS %)” value ([5]; KM12L4, 4 mg/kg oral, 3 terms of 5 days on/2 off, vs control solvent group) was 5%. The “Increased life span (ILS %)” value ([5]; KM12L4, 16 mg/kg oral, 3 terms of 5 days on/2 off, vs control solvent group) was 22%, the “Increased life span (ILS %)” value ([6]; A549, 4 mg/kg oral, 3 terms of 5 days on/2 off, vs control solvent group) was 57% and the “Increased life span (ILS %)” value ([6]; A549, 16 mg/kg oral, 3 terms of 5 days on/2 off, vs control solvent group) was 30%. The “Increased life span (ILS %)” value ([7]; TMK-1, 4 mg/kg oral, 3 terms of 5 days on/2 off, vs control solvent group) was 59% and the “Increased life span (ILS %)” value ([7]; TMK-1, 16 mg/kg oral, 3 terms of 5 days on/2 off, vs control solvent group) was 71%.
